From patent US20230312556A1, “ARYLAMIDE COMPOUND, PHARMACEUTICAL COMPOSITION COMPRISING SAME, AND PREPARATION METHOD THEREFOR AND USE THEREOF” (SICHUAN KELUN-BIOTECH BIOPHARMACEUTICAL CO., LTD., priority 2020, published 2023)

What was measured:
[1] = tested on: human hepatocellular carcinoma cell HepG2 (NRAS-Q61K mutation); assay: Cancer cell proliferation inhibition assay, HepG2; type: cell-based; details: 72 h incubation, Cell Titer Glo
Source text: (§1) The inhibitory effects of the compounds of the present invention on cancer cell proliferation were further evaluated by testing the effects of the compounds of the present invention on the growth of cancer cells.
(§2) In this example, human melanoma cell A375 (BRAF-V600E mutation, purchased from the Cell Bank of the Chinese Academy of Sciences) and human hepatocellular carcinoma cell HepG2 (NRAS-Q61K mutation, purchased from ATCC, USA) were employed.
(§3) In this example, the test compounds at various concentrations (100000 nM, 30000 nM, 10000 nM, 3000 nM, 1000 nM, 300 nM, 100 nM, 30 nM, 10 nM) were added to the above cells, and the incubation was performed for 72 h. The inhibitory activity of the compounds was tested by measuring ATP in living cells using the Cell Titer Glo Kit (Promega).
(§4) The IC50 values of the compounds of the present invention for each tested cell were determined, and the test results are as follows: […]

[2] = tested on: human melanoma cell A375 (BRAF-V600E mutation); assay: Cancer cell proliferation inhibition assay, A375; type: cell-based; details: A-375, 72 h incubation, Cell Titer Glo
Source text: as §1, §2, §3, §4

SMILES	IC50 [1] [nM]	IC50 [2] [nM]
Cc1ccc2c(Nc3cccc(Cl)c3F)nccc2c1NC(=O)c1cc(OCCO)cc2c(N)ncnc12 [Compound 86, 4-amino-N-(1-((3-chloro-2-fluorophenyl)amino)-6-methylisoquinolin-5-yl)-6-(2-hydroxyethoxy)quinazoline-8-carboxamide]	48 ± 5.36	60.6 ± 2.8
Cc1ccc2c(Nc3ccc4c(c3)OCCO4)nccc2c1NC(=O)c1cccc2c(N)ncnc12 [Compound 77, 4-amino-N-(1-((2,3-dihydrobenzo[b][1,4]dioxin-6-yl)amino)-6-methylisoquinolin-5-yl)quinazoline-8-carboxamide]	51.4 ± 8.5	31.6 ± 7.42
Cc1ccc(Nc2nccc3c(NC(=O)c4cccc5c(N)ncnc45)c(C)ccc23)c(F)c1 [Compound 88, 4-amino-N-(1-((2-fluoro-4-methylphenyl)amino)-6-methylisoquinolin-5-yl)quinazoline-8-carboxamide]	70.2 ± 9.8	55.4 ± 8
COc1ccc(Nc2nccc3c(NC(=O)c4cccc5c(N)ncnc45)c(C)ccc23)cc1 [Compound 57, 4-amino-N-(1-((4-methoxyphenyl)amino)-6-methylisoquinolin-5-yl)quinazoline-8-carboxamide]	24.3 ± 3.3	66.1 ± 17
COc1ccc(Nc2nccc3c(NC(=O)c4cnc5c(N)ncnn45)c(C)ccc23)cc1Cl [Compound 56, 4-amino-N-(1-((3-chloro-4-methoxyphenyl)amino)-6-methylisoquinolin-5-yl)imidazo[2,1-f][1,2,4]triazine-7-carboxamide]	22.2 ± 2.9	67 ± 7.3
Cc1ccc2c(Nc3ccc4c(c3)CN(C)CC4)nccc2c1NC(=O)c1cccc2c(N)ncnc12 [Compound 82, 4-amino-N-(6-methyl-1-((2-methyl-1,2,3,4-tetrahydroisoquinolin-7-yl)amino)isoquinolin-5-yl)quinazoline-8-carboxamide]	245 ± 27.3	141 ± 44.1
Cc1ccc2c(Nc3ccc(N(C)C)nc3)nccc2c1NC(=O)c1cccc2c(N)ncnc12 [Compound 59, 4-amino-N-(1-((6-(dimethylamino)pyridin-3-yl)amino)-6-methylisoquinolin-5-yl)quinazoline-8-carboxamide]	211 ± 16.6	85 ± 5.2
Cc1ccc2c(Nc3cc(F)c(F)c(F)c3F)nccc2c1NC(=O)c1cccc2c(N)ncnc12 [Compound 96, 4-amino-N-(6-methyl-1-((2,3,4,5-tetrafluorophenyl)amino)isoquinolin-5-yl)quinazoline-8-carboxamide]	119 ± 29.3	–
Cc1ccc2c(Nc3cccc(Cl)c3F)nccc2c1NC(=O)c1cc(OCCN2CCOCC2)cc2c(N)ncnc12 [Compound 79, 4-amino-N-(1-((3-chloro-2-fluorophenyl)amino)-6-methylisoquinolin-5-yl)-6-(2-morpholinoethoxy)quinazoline-8-carboxamide]	145 ± 12.3	72.2 ± 13
COc1ccc(Nc2nccc3c(NC(=O)c4cccc5c(N)ncnc45)c(C)ccc23)cn1 [Compound 75, 4-amino-N-(1-((6-methoxypyridin-3-yl)amino)-6-methylisoquinolin-5-yl)quinazoline-8-carboxamide]	34 ± 7.6	67.7 ± 15.1
Cc1ccc2c(Nc3cccc(C#N)c3F)nccc2c1NC(=O)c1cccc2c(N)ncnc12 [Compound 83, 4-amino-N-(1-((3-cyano-2-fluorophenyl)amino)-6-methylisoquinolin-5-yl)quinazoline-8-carboxamide]	50.5 ± 8.48	61.9 ± 6.7
Cc1ccc2c(Nc3c(F)c(F)cc(F)c3F)nccc2c1NC(=O)c1cccc2c(N)ncnc12 [Compound 95, 4-amino-N-(6-methyl-1-((2,3,5,6-tetrafluorophenyl)amino)isoquinolin-5-yl)quinazoline-8-carboxamide]	69 ± 18.9	–
Cc1ccc2c(Nc3ccc(CN(C)C)c(C(F)(F)F)c3)nccc2c1NC(=O)c1cnc2c(N)ncnn12 [Compound 62, 4-amino-N-(1-((4-((dimethylamino)methyl)-3-(trifluoromethyl)phenyl)amino)-6-methylisoquinolin-5-yl)imidazo[2,1-f][1,2,4]triazine-7-carboxamide]	82.2 ± 10.1	49.1 ± 2.74
Cc1ccc2c(Nc3ccc(Cl)c(CN(C)C)c3)nccc2c1NC(=O)c1cccc2c(N)ncnc12 [Compound 64, 4-amino-N-(1-((4-chloro-3-((dimethylamino)methyl)phenyl)amino)-6-methylisoquinolin-5-yl)quinazoline-8-carboxamide]	75.2 ± 6.9	70.3 ± 8.5
Cc1ccc2c(Nc3cc(F)ccc3F)nccc2c1NC(=O)c1cccc2c(N)ncnc12 [Compound 72, 4-amino-N-(1-((2,5-difluorophenyl)amino)-6-methylisoquinolin-5-yl)quinazoline-8-carboxamide]	64.3 ± 12.3	–
Cc1ccc2c(C(O)c3ccccc3Cl)nccc2c1NC(=O)c1cccc2c(N)ncnc12 (stereo not drawn) [Compound 24, 4-amino-N-(1-((2-chlorophenyl)(hydroxy)methyl)-6-methylisoquinolin-5-yl)quinazoline-8-carboxamide]	–	70.7 ± 6.15
COc1ccc(Nc2nccc3c(NC(=O)c4cnc5c(N)ncnn45)c(C)ccc23)c(F)c1 [Compound 61, 4-amino-N-(1-((2-fluoro-4-methoxyphenyl)amino)-6-methylisoquinolin-5-yl)imidazo[2,1-f][1,2,4]triazine-7-carboxamide]	21.3 ± 4.88	141 ± 4.88
Cc1ccc(Nc2nccc3c(NC(=O)c4cccc5c(N)ncnc45)c(C)ccc23)cc1 [Compound 65, 4-amino-N-(6-methyl-1-(p-tolylamino)isoquinolin-5-yl)quinazoline-8-carboxamide]	38.8 ± 3	47.1 ± 9.4
Cc1ccc2c(Nc3cccc(OCCN4CCOCC4)c3F)nccc2c1NC(=O)c1cccc2c(N)ncnc12 [Compound 98, 4-amino-N-(1-((2-fluoro-3-(2-morpholinoethoxy)phenyl)amino)-6-methylisoquinolin-5-yl)quinazoline-8-carboxamide]	63.7 ± 4.4	–
CCOc1ccc(Nc2nccc3c(NC(=O)c4cccc5c(N)ncnc45)c(C)ccc23)c(F)c1 [Compound 74, 4-amino-N-(1-((4-ethoxy-2-fluorophenyl)amino)-6-methylisoquinolin-5-yl)quinazoline-8-carboxamide]	62.3 ± 9.2	62.7 ± 12.5
COc1ccc(F)c(Nc2nccc3c(NC(=O)c4cccc5c(N)ncnc45)c(C)ccc23)c1 [Compound 87, 4-amino-N-(1-((2-fluoro-5-methoxyphenyl)amino)-6-methylisoquinolin-5-yl)quinazoline-8-carboxamide]	37.7 ± 7.05	56 ± 2.5
Cc1ccc2c(Nc3cccc(Cl)c3F)nccc2c1NC(=O)c1cc(O)cc2c(N)ncnc12 [Compound 76, 4-amino-N-(1-((3-chloro-2-fluorophenyl)amino)-6-methylisoquinolin-5-yl)-6-hydroxyquinazoline-8-carboxamide]	147 ± 19.2	202 ± 5.74
Cc1cc(C(=O)Nc2c(C)ccc3c(Nc4cccc(Cl)c4F)nccc23)c2ncnc(N)c2c1 [Compound 45, 4-amino-N-(1-((3-chloro-2-fluorophenyl)amino)-6-methylisoquinolin-5-yl)-6-methylquinazoline-8-carboxamide]	64.3 ± 5.08	74.2 ± 3.5
Cc1ccc2c(Nc3cccc(Cl)c3F)nccc2c1NC(=O)c1cn(C)c2c(N)ncnc12 [Compound 101, 4-amino-N-(1-((3-chloro-2-fluorophenyl)amino)-6-methylisoquinolin-5-yl)-5-methyl-5H-pyrrolo[3,2-d]pyrimidine-7-carboxamide]	81.1 ± 4.5	–
Cc1ccc2c(Nc3cccc(Cl)c3F)nccc2c1NC(=O)c1cc(N2CCOCC2)cc2c(N)ncnc12 [Compound 53, 4-amino-N-(1-((3-chloro-2-fluorophenyl)amino)-6-methylisoquinolin-5-yl)-6-morpholinoquinazoline-8-carboxamide]	113 ± 3.35	77.7 ± 2.3
Cc1ccc2c(Nc3ccc(Cl)cc3F)nccc2c1NC(=O)c1cnc2c(N)ncnn12 [Compound 55, 4-amino-N-(1-((4-chloro-2-fluorophenyl)amino)-6-methylisoquinolin-5-yl)imidazo[2,1-f][1,2,4]triazine-7-carboxamide]	30.4 ± 4.3	–
Cc1ccc2c(Nc3cc(Br)ccc3F)nccc2c1NC(=O)c1cccc2c(N)ncnc12 [Compound 91, 4-amino-N-(1-((5-bromo-2-fluorophenyl)amino)-6-methylisoquinolin-5-yl)quinazoline-8-carboxamide]	140 ± 17	87.1 ± 10.4
Cc1ccc2c(Nc3cccc(Cl)c3F)nccc2c1NC(=O)c1cncc2c(N)ncnc12 [Compound 69, 4-amino-N-(1-((3-chloro-2-fluorophenyl)amino)-6-methylisoquinolin-5-yl)pyrido[4,3-d]pyrimidine-8-carboxamide]	49.6 ± 9.7	94.6 ± 4
Cc1ccc2c(Nc3cccc(Cl)c3)nccc2c1NC(=O)c1cnc2c(N)ncnn12 [Compound 12, 4-amino-N-(1-((3-chlorophenyl)amino)-6-methylisoquinolin-5-yl)imidazo[2,1-f][1,2,4]triazine-7-carboxamide]	13.9 ± 1.7	–
Cc1ccc2c(Nc3cccc(Cl)c3F)nccc2c1NC(=O)c1ccnc2c(N)ncnc12 [Compound 81, 4-amino-N-(1-((3-chloro-2-fluorophenyl)amino)-6-methylisoquinolin-5-yl)pyrido[3,2-d]pyrimidine-8-carboxamide]	222 ± 29.8	–
